Tests used:
[1] = biological target: T1, C. botulinum SAM-AMP lyase (Clostridium botulinum, UniProt A5I3U9)
T1 construct: gene CBO2178

[2] = biological target: T1, C. botulinum SAM-AMP lyase; remark: listed apart in the source

T1 sequence (A5I3U9 1-124 limits assumed): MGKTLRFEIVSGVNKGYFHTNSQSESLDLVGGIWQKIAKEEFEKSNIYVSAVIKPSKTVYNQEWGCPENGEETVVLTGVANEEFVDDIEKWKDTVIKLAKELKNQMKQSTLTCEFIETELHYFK

Compound | electrophoretic mobility shift assay, native gel [1] | HPLC and LC-MS of cleavage to MTA-AMP and homoserine lactone [2]
CSC[C@H]1O[C@@H](n2cnc3c(N)ncnc32)[C@H](O)[C@@H]1OP(=O)(O)OC[C@H]1O[C@@H](n2cnc3c(N)ncnc32)[C@H](O)[C@@H]1O [MTA-AMP] | SAM-AMP lyase binds its product MTA-AMP, but not SAH-AMP or SFG-AMP | –
C[S+](CC[C@H](N)C(=O)O)C[C@H]1O[C@@H](n2cnc3c(N)ncnc32)[C@H](O)[C@@H]1OP(=O)(O)OC[C@H]1O[C@@H](n2cnc3c(N)ncnc32)[C@H](O)[C@@H]1O (some centres unmarked) [SAM-AMP] | – | HPLC analysis and mass spectrometry confirmed that SAM-AMP was degraded, generating the previously observed MTA-AMP product
